The source made the active and inactive calls. The calls are words filed in the database; no cut-off is given here.
What was measured:
[1] = tested on: RAW264.7; assay: Cytotoxicity against mouse RAW264.7 cells at 50 uM after 24 hrs by MTT assay; assay type: cell-based; conditions: raw264.7, 24 h
[2] = tested on: RAW264.7; assay: Cytotoxicity against mouse RAW264.7 cells at 50 uM after 24 hrs in presence of 1 ug/ml LPS by MTT assay; assay type: cell-based; conditions: raw264.7, 24 h
[3] = tested on: RAW264.7; assay: Antiinflammatory activity against LPS-stimulated mouse RAW264.7 cells assessed as inhibition of LPS-induced IL-6 production by measuring IL-6 level at 50 uM preincubated for 2 hrs followed by LPS treatment and measured after 16 hrs by ELISA (reference value: 100 +/- 1.33%); assay type: functional; parameters: scale not given: the % may be the effect or the level left
[4] = tested on: RAW264.7; assay: Antiinflammatory activity against LPS-stimulated mouse RAW264.7 cells assessed as inhibition of LPS-induced TNFalpha production by measuring TNFalpha level at 50 uM preincubated for 2 hrs followed by LPS treatment and measured after 16 hrs by ELISA (reference value: 100 +/- 0.45%); assay type: functional

Compound | Activity [1] | Activity [2] | Activity [3] | TNFalpha level (% of LPS control) [4]
N#C[C@@H]1N2CCC[C@H]3CN4C(=O)CCC[C@@H]4[C@H]([C@H]32)[C@@H]2O[C@]12[C@H]1CC[C@H]2CN3C(=O)CCC[C@@H]3[C@H]3CCCN1[C@@H]23 | Non-Toxic | Non-Toxic | 52.87% | 50.05%
O=C1CCC[C@@H]2[C@H]3CC([C@H]4CC[C@H]5CN6C(=O)CCC[C@@H]6[C@H]6CCCN4[C@@H]56)=CN4CCC[C@@H](CN12)[C@@H]34 | Non-Toxic | Non-Toxic | 73.9% | 49.59%
O=C1CCC[C@@H]2[C@H]3CCCN4CCC[C@@H](CN12)[C@@H]34 [MATRINE] | – | – | 65.49% | 72.48%
O=C1CCC[C@@H]2[C@H]3CCCN4CC([C@@H]5CC[C@H]6[C@@H]7[C@@H](CCCN75)CN5C(=O)CCC[C@H]65)=C[C@@H](CN12)[C@@H]34 | Non-Toxic | Non-Toxic | 60.08% | 70.86%
O=C1CCC[C@@H]2[C@H]3CCCN[C@H]3[C@H](CCC[C@H]3C[C@H]4CN5C(=O)CCC[C@@H]5[C@H]5CCCN(C3)[C@@H]45)CN12 | Non-Toxic | Non-Toxic | inactive | 69.14%
N#C[C@H]1N2CCC[C@H]3[C@@H]2[C@H](CN2C(=O)CCC[C@H]32)[C@H]2O[C@]21[C@@H]1CC[C@H]2[C@@H]3[C@@H](CCCN31)CN1C(=O)CCC[C@H]21 | Non-Toxic | Non-Toxic | 67.85% | 96.64%
